Test results: patent publication US9975910B2, “Hetero-fused cyclic compound” (Eisai R&D Management Co., Ltd., priority 2013, dated 2018)
Values after ≈ are worked out from the molar mass of the structure shown.

How the values were obtained:
[1] = Evaluation on lipid solubility: distribution ratio (D) of 1-octanol to water by ODS column HPLC; type: physicochemical; details: 1-octanol/water, pH 6.8, from HPLC retention on ODS column
Method: A parameter of lipid solubility, i.e., a distribution ratio (D) of a 1-octanol to water (pH: 6.8) was determined with an ODS (silica gel having a surface modified with an octadecylsilyl group) column by the following method.
The mobile phase shown in Table 2 was added to sodium nitrate (to marker) and six standard substances having known partition coefficients shown in Table 2 to prepare mixed solutions each containing 5 μg/mL sodium nitrate and a 10 μg/mL or 10 μL/mL standard substance; these mixed solutions were used as standard solutions. The mobile phase shown in Table 3 was added to a sample, the concentration was adjusted to 0.1 mM to prepare a sample solution. HPLC analysis of the standard solutions and the sample solution was performed on the following conditions, and the retention times (tr) of the standard substances and the sample were measured. From the retention factor (kstd) determined from the partition coefficient (log P) of the standard substance and Expression I, the regression coefficient (a) and the constant term (b) in Expression II were determined; using Expression III, the partition coefficient (log D) at a pH of 6.8 was calculated from the retention factor (ksmpt) of the sample; finally, the distribution ratio (D) of 1-octanol to water (pH: 6.8) was obtained.
Reference: Exploring QSAR-Hydrophobic, and Steric Constants, Corwin Hansch, Albert Leo, and David Hoekman, ACS Professional Reference Book k=(tr−t0)/t0 Expression I log P=a×log kstd+b Expression II log D=a×log ksmp+b Expression III (2) Measurement Conditions

[2] = Metabolic stability of pooled human liver microsomes; type: in vitro ADME; details: for Residual rate of unchanged substance (%): 0.3 μM compound, 0.2 mg/mL microsomes, 37° C., NADPH; for microsomal CLint at 0.3 μM: ke/(concentration of pooled human liver microsomes), read-out: Hepatic intrinsic clearance; for Clearance of human liver microsomes compared with the respective Comparative Example: result in words
Method: Evaluations on the metabolic stability of human liver microsomes prepared in Reference Examples 1 and 2 and Comparative Examples 1 and 2 produced using Examples were performed as follows.
A test compound was added to an enzyme solution (pooled human liver microsomes (0.2 mg/mL), 100 mM Kpi, containing 0.1 mM EDTA), and was incubated in the presence of a coenzyme for a predetermined time at 37° C. The final concentration of the test compound was 0.3 μM. As the coenzyme, an NADPH-generating system (solution in which 60 mM MgCl2 solution containing 3.6 mM β-NADP^+, 90 mM glucose-6-phosphate, and 1 Unit/mL glucose-6-phosphate dehydrogenated enzyme was incubated at 37° C. for 5 minutes to generate NADPH) was used. After pre-incubation, part of the reaction solution was extracted; a double amount of a mixed solution of acetonitrile and methanol (7:3, containing 1.0 μM Propranolol as an internal standard substance) was added to terminate the reaction, and the concentration of the unchanged substance in the reaction solution was measured by LC-MS/MS. Based on the peak area of the unchanged substance obtained, the residual rate (%) of the unchanged substance was calculated wherein the residual rate at 0 min (incubation time) was 100%. Namely, the inclination of the straight line obtained when the value obtained by natural logarithmic conversion of the residual rate of the unchanged substance after a predetermined reaction time was plotted as the ordinate, and the reaction time was plotted as the abscissa was defined as an elimination rate constant (ke). Based on the obtained elimination rate constant ke, the hepatic intrinsic clearance of the test compound was calculated with the following expression: Hepatic intrinsic clearance (mL/min/mg protein)=ke/(concentration of pooled human liver microsomes: mg protein/mL)

[3] = test system: C. albicans CAF2-1 strains; assay: Anticandidal activity (MIC measurement); type: cell-based; details: for MIC: Candida albicans, CAF21STRAINS; for Anticandidal activity compared with amphotericin B: result in words
Method: The anticandidal activity of Reference Examples 1, 2, and 3 and Comparative Examples 1, 2, and 3 produced using Examples and amphotericin B was measured as follows.
C. albicans CAF2-1 strains were subjected to static culture in a Sabouraud dextrose liquid culture medium (SDB) at 30° C. for 48 hours; and the bacterial suspension was diluted with an RPMI1640 culture medium to prepare a 1.2×10^3 cells/mL bacterial suspension.
The diluted solutions of eight test compounds in plates (A to H) were prepared using a U-bottomed 96-well plate. 10 μL of a dimethyl sulfoxide solution was poured into columns 2 to 12 of the individual plates. The weighed test compounds were separately dissolved in dimethyl sulfoxide to prepare 2.5 mg/mL solutions; then, these solutions (20 μL) were placed in column 1 of the prepared plates, and were subjected to two-fold serial dilution in 12 steps on the plates (10 μL of solution+10 μL of dimethyl sulfoxide solution). The diluted solutions of the test compounds each were placed in a flat-bottomed 96-well plate for MIC measurement in an amount of 1 μL to prepare plates of the diluted test compound.
The bacterial suspension prepared in (1) (99 μL/well) was inoculated into the flat-bottomed 96-well plate containing the diluted solutions of the test compounds (1 μL/well) prepared in (2), and was subjected to static culture at 35° C. for 42 to 48 hours under an aerobic condition.

[4] = Evaluation on solubility (HPLC-UV, phosphate-buffered saline); type: physicochemical; details: for solubility: aqueous buffer, kinetic from dmso stock, Dulbecco's phosphate-buffered saline pH 7 (GIBCO), room temperature, about 15 minutes shaking; for Solubility compared with Comparative Example 1 and Comparative Example 2: phosphate-buffered saline pH 7, result in words
Method: The supernatant was then separated through vacuum filtration operation. A dimethyl sulfoxide solution (sample concentration: 100 μM) was used as a standard solution, and the sample concentration in the supernatant determined by an HPLC-UV method was defined as solubility. Test solution: pH of 7, GIBCO™ (Dulbecco's phosphate-buffered saline, Invitrogen Corporation)

[5] = standard substances, known values (Hansch, Leo, Hoekman); cited from earlier work
[6] = RPMI1640, 35° C., 42 to 48 hours, visually determined

| SMILES | chromatographic logD [1] | Residual rate of unchanged substance (%) ([2]; After 0 min (defined as 100%)) | Residual rate of unchanged substance (%) ([2]; After 15 min) | microsomal CLint at 0.3 μM [2] [µL/min/mg] | MIC [3, 6] [µg/mL] | Anticandidal activity compared with amphotericin B [3] | solubility [4] [µM] | Solubility compared with Comparative Example 1 and Comparative Example 2 [4] | Residual rate of unchanged substance (%) ([2]; After 30 min) | Residual rate of unchanged substance (%) ([2]; After 60 min) | Clearance of human liver microsomes compared with the respective Comparative Example [2] | Partition coefficient (logP) [5] | Anticandidal activity (MIC) [3, 6] [µg/mL] |
| --- | --- | --- | --- | --- | --- | --- | --- | --- | --- | --- | --- | --- | --- |
| Cc1cc(C(=O)NCc2ccc(OCc3ccccc3)cc2)c(N)nc1C [Comparative Example 3, 2-Amino-N-(4-(benzyloxy)benzyl)-5,6-dimethylnicotinamide, reference compound] | 3.41 | 100.0 | 65.0 | 150 | 0.13 (≈ 0.36 µM) | strong anticandidal activity equal to that of amphotericin B | – | – | – | – | – | – | – |
| Nc1nc2c(nc1C(=O)NCc1ccc(COc3ccccn3)cc1)COC2 [Reference Example 2, 5-Amino-N-({4-[(pyridin-2-yloxy)methyl]phenyl}methyl)-1,3-dihydrofuro[3,4-b]pyrazine-6-carboxamide] | 2.72 | 100.0 | 87.0 | 35 | 0.5 (≈ 1.32 µM) | strong anticandidal activity equal to that of amphotericin B | 2.1 (≈ 0.793 µg/mL) | higher | 77.6 | 65.4 | improved | – | – |
| CCCCc1ccccc1 [n-Butylbenzene] | – | – | – | – | – | – | – | – | – | – | – | 4.38 | – |
| C[C@@H]1[C@H](O)[C@@H](C)/C=C/C=C/C=C/C=C/C=C/C=C/C=C/[C@H](O[C@@H]2O[C@H](C)[C@@H](O)[C@H](N)[C@@H]2O)C[C@@H]2O[C@](O)(C[C@@H](O)C[C@@H](O)[C@H](O)CC[C@@H](O)C[C@@H](O)CC(=O)O[C@H]1C)C[C@H](O)[C@H]2C(=O)O [Amphotericin B] | – | – | – | – | – | – | – | – | – | – | – | – | 1.6 |
| Cc1nc(N)c(C(=O)NCc2ccc(COc3ccccn3)cc2)nc1C [Comparative Example 2, 3-Amino-5,6-dimethyl-N-({4-[(pyridin-2-yloxy)methyl]phenyl}methyl)pyrazine-2-carboxamide, reference compound] | 3.26 | 100.0 | 73.0 | 98 | 0.063 (≈ 0.173 µM) | strong anticandidal activity equal to that of amphotericin B | 0.9 (≈ 0.327 µg/mL) | – | 53.7 | 30.9 | – | – | – |
| Cc1cc(Cc2ccc(CNC(=O)c3ccc(N)nc3N)cc2)sc1C [Comparative Example 1, 2,6-Diamino-N-({4-[(4,5-dimethylthiophen-2-yl)methyl]phenyl}methyl)-pyridine-3-carboxamide, reference compound] | 3.27 | 100.0 | 93.1 | 50 | 0.13 (≈ 0.355 µM) | strong anticandidal activity equal to that of amphotericin B | 0.2 (≈ 0.0733 µg/mL) | – | 77.0 | 56.2 | – | – | – |
| Nc1ccc(C(=O)NCc2ccc(Cc3cc4c(s3)COC4)cc2)c(N)n1 [Reference Example 1] | 2.15 | 100.0 | 83.6 | 39 | 0.25 (≈ 0.657 µM) | strong anticandidal activity equal to that of amphotericin B | 13.9 (≈ 5.29 µg/mL) | higher | 75.9 | 61.4 | improved | – | – |
| Nc1nc2c(cc1C(=O)NCc1ccc(OCc3ccccc3)cc1)COC2 [Reference Example 3] | 2.72 | 100.0 | 78.0 | 82 | 2 (≈ 5.33 µM) | strong anticandidal activity equal to that of amphotericin B | – | – | – | – | improved | – | – |
